# Laboratory results from US10973863B2, “Method for regulating, preventing and/or treating pulmonary injury” (SINPHAR PHARMACEUTICAL CO., LTD., priority 2017, dated 2021).
# What was measured:
# Assay type in all cases: cell-based, rat
# active-form MMP-9 = assay: Western blot: active-form MMP-9 expression in LPS-treated NR8383 cells; conditions: 0.01 μg/mL LPS; 6.25, 12.5, 25 and 50 μg/mL; 24 hours
# Description: (§1) Rat alveolar macrophage NR8383 cells were divided into six groups and separately cultivated with the following media for 24 hours: • (1) Control group: a macrophage growth medium containing 0.01 μg/mL LPS; • (2) Positive control group: a macrophage growth medium containing 0.01 μg/mL LPS and 1 μM Dex; and • (3) Extract A group (including four sub-groups): a macrophage growth medium containing 0.01 μg/mL LPS and the extract A provided by [preparation example A-2-2], wherein the extract A is present in the four sub-groups at a concentration of 6.25, 12.5, 25 and 50 μg/mL respectively.
# (§2) Thereafter, the proteins in the cells of each group were extracted and then subjected to a Western blot to measure the expression level of pro-form MMP-9 (i.e., the zymogen form of MMP-9), active-form MMP-9 and MMP-12. The relative expression level of pro-form MMP-9, active-form MMP-9 and MMP-12 of each group was calculated by using the results of the control group as a basis (i.e., the expression level of control group was served as 1-fold).
# (§3) Rat alveolar macrophage NR8383 cells were divided into ten groups and separately cultivated with the following media for 24 hours:
# (§4) (1) Control group: a macrophage growth medium containing 0.01 μg/mL LPS;
# (§5) (2) Positive control group: a macrophage growth medium containing 0.01 μg/mL LPS and 1 μM Dex; […]
# MMP-12 = assay: Western blot: MMP-12 expression in LPS-treated NR8383 cells; conditions: 0.01 μg/mL LPS; 6.25 to 50 μg/mL; 24 hours
# Description: as §1, §2, §3, §4, §5
# MMP-9 = assay: Gelatin zymography: LPS-activated active expression of MMP-9 in NR8383 cells; conditions: Table 5, LPS 1 μg/mL, 24 hours
# From the text: As indicated above, when an inflammatory response occurs in animal's pulmonary tissue, the active inflammatory cells will secret MMPs that will destroy the pulmonary tissue structure, cause more serious pulmonary injury, and lead to the decrement in or the loss of pulmonary functions. […]
# Thereafter, the medium of each group was collected and respectively subjected to the following procedures. A 10% polyacrylamide gel containing 0.2% gelatin was used to carry out the sodium dodecyl sulfate polyacrylamide gel electrophoresis (SDS-PAGE). After the electrophoresis was completed, the gel was sequentially soaked in 2.5% Triton X-100 solution for 90 minutes to remove SDS, soaked in distillation-distillation water (ddH2O) for 30 minutes, and placed in a reaction solution (50 mM Tris-HCl buffer containing 10 mM CaCl2 and 0.02% NaN3) at a temperature of 37° C. for 18 hours. After the foregoing reaction was completed, the gel was stained by a Coomassie blue staining solution, and the image of stained gel was taken and subjected to an image analysis. The image intensity (the image intensity was calculated based on the size of area and the shade of color) of highlight band (i.e., the gelatin in this area was degraded by MMPs, wherein the area locating around 95 kD molecular weight) on the gel of each group can reflect the active expression of MMP-9 of rat alveolar macrophage NR8383 cells under different conditions (the relative active expression of MMP-9 was calculated by serving the results of the blank group as 0% and serving that of the control group as 100%).
# Rat alveolar macrophage NR8383 cells were divided into twenty-eight groups and separately cultivated with the following media for 24 hours: • (1) Blank group: a macrophage growth medium; • (2) Control group: a macrophage growth medium containing 1 μg/mL LPS; • (3) Positive control group: a macrophage growth medium containing 1 μg/mL LPS and 5 μM Prednisolone (a type of corticosteroid; abbreviated as “Pred”; purchased from Sigma-Aldrich); • (4) Extract C (including five sub-groups): a macrophage growth medium containing 1 μg/mL LPS and the extract C provided by [preparation example A-3-2], wherein the extract C is present in the five sub-groups at a concentration of […] respectively; • (5) Extract D (including five sub-groups): a macrophage growth medium containing 1 μg/mL UPS and the extract D provided by [preparation example A-4-2], wherein the extract D is present in the five sub-groups at a concentration of 0.78, 1.56, 3.13, 6.25 and 12.5 respectively; • (6) Extract E (including five sub-groups): a macrophage growth medium containing 1 μg/mL LPS and the extract E provided from [preparation example A-4-3], wherein the extract E is present in the five sub-groups at a concentration of 0.78, 1.56, 3.13, […], and 12.5 respectively; • (7) DATA group (including five sub-groups): a macrophage growth medium containing 1 μg/mL LPS and the dehydrotrametenolic acid (DTTA) provided by [preparation example C-1], wherein the dehydrotrametenolic acid (DTTA) is present in the five sub-groups at a concentration of 0.39, 0.78, 1.56, 3.13 and 6.25 μg/mL respectively; and • (8) PAA group (including live sub-groups): a macrophage growth medium containing 1 μg/mL LPS and the poricoic acid A (PAA) provided from [preparation example C-1], wherein the poricoic acid A (PAA) is present in the five sub-groups at a concentration of 6.25, 12.5, 25, 50 and 100 respectively.
# Thereafter, the medium of each group was collected and analyzed by the analyzing procedures same as that of (1-1).
smiles,measurement,setting,value
"C=C(CC[C@@H](C(=O)O)[C@H]1[C@H](O)C[C@@]2(C)C3=CC[C@@H](C(=C)C)[C@](C)(CCC(=O)O)C3=CC[C@]12C)C(C)C [PAA, poricoic acid A]",Inhibitory rate on active-form MMP-9 (highest over tested concentrations),active-form MMP-9,up to 44%
same,Expression level of MMP-12 (in words),MMP-12,effective in inhibiting
same,Relative active expression of MMP-9 (%),MMP-9; 6.25 μg/mL,82%
same,Relative active expression of MMP-9 (%),MMP-9; 12.5 μg/mL,77%
same,Relative active expression of MMP-9 (%),MMP-9; 25 μg/mL,60%
same,Relative active expression of MMP-9 (%),MMP-9; 50 μg/mL,35%
same,Relative active expression of MMP-9 (%),MMP-9; 100 μg/mL,18%
